For this test, the target named is TRPC6 (Homo sapiens (Human), UniProt Q9Y210). The test can be described thus: High throughput screening assay: fluorescent calcium (Fluo4/AM) assay of TRPC6 channel activation by GSK1702934A in HEK293/TREx cells. The format is cell-based. The conditions noted are these: HEK293/TREx cells stably transfected with TRPC6; agonist GSK1702934A; 7 concentrations 20 μM to 0.027 μM, triplicate. The text has this:
This screening assay measures TRPC6 (transient receptor potential cation channel, subfamily C, member 6) ion channel activation via addition either of the commercially available DAG ligand analogue OAG (1-oleoyl-2-acetyl-sn-glycerol) or of the TRPC6 agonist 1-[1-(4,5,6,7,8-pentahydrocyclohepta[2,1-d]thiophen-2-ylcarbonyl)-4-piperidyl]-3-hydrobenzimidazol-2-one (GSK1702934A). The assay utilizes a FLIPR fluorescent calcium sensor 4-(6-Acetoxymethoxy-2,7-difluoro-3-oxo-9-xanthenyl)-4′-methyl-2,2′-(ethylenedioxy)dianiline-N,N,N′,N′-tetraacetic acid tetrakis(acetoxymethyl) ester (Fluo4/AM) […]. Changes (increases) in intracellular membrane calcium concentration potential as measured by the fluorescent signal increase during membrane depolarization provide a measurement of channel activity.
The commercially available HEK293/TREx line (Invitrogen) was stably transfected with a TRPC6 construct and screened by conventional calcium imaging to find clones with TRPC6 expression following stimulation with 1 μg/ml tetracycline. These cells were maintained in the growth medium recommended by the manufacturer supplemented with 100 μg/ml hygromycin to promote retention of the TRPC6 construct. After growing to near confluency, cells were plated at a density of ^˜35,000 cells/well in 384 well CellBind plates (Corning) in the presence of 1 μg/ml tetracycline, and allowed to grow for 20-30 hrs. A nearly confluent monolayer resulted. Growth media was removed from the wells and cells were then loaded with […] Fluo4/AM diluted in Ringer's Solution (6.5 g NaCl, 0.42 g KCl, 0.25 g CaCl2) and 0.2 g of sodium bicarbonate; pH 7.4) supplemented with 1% Pluronic F-127 to a final concentration of 0.5 μM and incubated for 60 min, at room temperature. Dye solution was then removed from the cells by inverting plates with a sharp flick, and replaced with 25 μl Ringer's. Following ^˜0.5 hour for recovery from loading, cells were assayed using the Hamamatsu FDSS 6000 system, which permitted illumination at 485 nm. Frames were acquired at a rate of 0.2 Hz. During the assay, the plates were continuously vortexed, with pipette mixing of wells following addition of each reagent. For the screening assay, 26 μl of a diluted compound stock (at 50 μM) was added to each well for 2 minutes following the collection of a short (4 frame) baseline. 13 μl of agonist solution consisting of 125 nM GSK1702934A diluted in high-Ca2+Ringer solution (containing 90 mm Ca2+) was then added to each well, achieving a final concentration of 20 mm Ca2+ and 10 μM test compound. Data was collected for ^˜3 minutes following addition of high Ca2+Ringer. The fluorescent ratio for each well was divided by the initial fluorescent intensity for that well and the overall response was determined by averaging the fluorescent ratio of the last 4 frames acquired during the experiment excepting the final frame. Negative and Positive controls were included on each plate. Negative controls wells consisted of HEK293/TREx TRPC6 cells exposed to assay buffer and agonist solution, but no test compound. Positive control consisted of wells consisted of HEK293/TREx TRPC6 cells exposed to 25 μM 3-[(2-chlorophenoxy)methyl]phenyl piperidyl ketone (Chembridge) diluted in Ringer's solution and agonist solution. These controls defined zero percent and 100 percent block respectively, and intensity of each well was normalized to these values.
Compounds were tested in triplicate at all concentrations. Standard software was used to fit IC50 curves.
Chain of TRPC6 (Q9Y210 whole entry, species assumed): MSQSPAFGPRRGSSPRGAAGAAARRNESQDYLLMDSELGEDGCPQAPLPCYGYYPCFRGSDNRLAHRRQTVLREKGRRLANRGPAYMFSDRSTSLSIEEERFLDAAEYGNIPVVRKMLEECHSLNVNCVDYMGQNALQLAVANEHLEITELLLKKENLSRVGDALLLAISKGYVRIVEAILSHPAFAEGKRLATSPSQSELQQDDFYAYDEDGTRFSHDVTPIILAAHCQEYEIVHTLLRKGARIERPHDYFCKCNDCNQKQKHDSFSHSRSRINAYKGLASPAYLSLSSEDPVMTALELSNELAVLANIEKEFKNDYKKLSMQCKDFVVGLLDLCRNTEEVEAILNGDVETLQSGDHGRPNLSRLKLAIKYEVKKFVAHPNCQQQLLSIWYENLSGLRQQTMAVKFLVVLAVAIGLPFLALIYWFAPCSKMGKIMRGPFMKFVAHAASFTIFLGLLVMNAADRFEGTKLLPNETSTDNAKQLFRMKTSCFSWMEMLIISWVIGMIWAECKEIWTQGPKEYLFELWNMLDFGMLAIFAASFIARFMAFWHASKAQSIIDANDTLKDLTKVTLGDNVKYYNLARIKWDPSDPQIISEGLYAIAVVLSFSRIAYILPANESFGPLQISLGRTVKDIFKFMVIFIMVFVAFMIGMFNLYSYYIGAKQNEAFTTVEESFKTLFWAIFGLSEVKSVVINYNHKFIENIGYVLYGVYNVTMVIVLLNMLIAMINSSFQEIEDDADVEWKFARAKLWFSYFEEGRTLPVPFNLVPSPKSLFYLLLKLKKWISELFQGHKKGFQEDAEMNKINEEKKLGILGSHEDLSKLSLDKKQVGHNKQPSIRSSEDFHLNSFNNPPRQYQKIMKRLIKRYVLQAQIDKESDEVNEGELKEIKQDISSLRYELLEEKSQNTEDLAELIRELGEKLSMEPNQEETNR
By IC50 is commonly meant the concentration needed to halve the response being measured. Take `CCOc1cc(N)nnc1C1CCN(C(=O)c2cc(OC)c(Oc3ccccc3)cn2)CC1` [Compound 85, [4-(6-Amino-4-ethoxy-pyridazin-3-yl)-piperidin-1-yl]-[4-methoxy-5-(phenoxy)-pyridin-2-yl]-methanone]: the half-inhibitory concentration (IC50) stood at 320 nM. Under `COc1cc(C(=O)N2CCC(c3cnc(N)cc3OC3CC3)CC2)ncc1Oc1ccccc1` [Compound 84, (6-Amino-4-cyclopropoxy-3′,4′,5′,6′-tetrahydro-2′H-[3,4′]bipyridinyl-1′-yl)-[5-(phenoxy)-4-methoxy-pyridin-2-yl]-methanone] stands 300 nM; under `COc1cc(C(=O)N2CCC(c3cnc(N)cc3OC)CC2)ncc1OCC1CCC1(F)F` (centres unmarked) [Compound 95, 5-(1-{5-[(2,2-Difluorocyclobutyl)-methoxy]-4-methoxy-pyridine-2-carbonyl}-piperidin-4-yl)-4-methoxypyridin-2-amine], 445 nM.

With `COc1cc(C(=O)N2CCC(c3ccc(N)nc3)CC2)ncc1Oc1ccc(F)cc1` [Compound 14, (6-Amino-3′,4′,5′,6′-tetrahydro-2′H-[3,4′]bipyridinyl-1′-yl)-[5-(4-fluoro-phenoxy)-4-methoxy-pyridin-2-yl]-methanone], the IC50 came out at 27 nM. Regarding `COc1cc(C(=O)N2CCC(c3ccc(N)nn3)CC2)ncc1OC1CCCCC1` [Compound 62, [4-(6-Amino-pyridazin-3-yl)-piperidin-1-yl]-(5-cyclohexyloxy-4-methoxy-pyridin-2-yl)-methanone], the IC50 was found to be 550 nM.

Regarding `COc1cc(C(=O)N2CCC(c3ccc(N)nn3)CC2)ncc1O[C@@H](C)C1CC1` [Compound 79, [4-(6-Amino-pyridazin-3-yl)-piperidin-1-yl]-[5-((S)-1-cyclopropyl-ethoxy)-4-methoxy-pyridin-2-yl]-methanone], the IC50 turned out to be 3700 nM. Take `COc1cc(C(=O)N2CCC(c3cnc(N)cc3OC)CC2)ncc1OCC1(C)CC1` [Compound 26, (6-Amino-4-methoxy-3′,4′,5′,6′-tetrahydro-2′H-[3,4′]bipyridinyl-1′-yl)-[4-methoxy-5-(1-methyl-cyclopropylmethoxy)-pyridin-2-yl]-methanone]: the IC50 was found to be 71 nM. As to `COc1cc(C(=O)N2CCC(c3cnc(N)cc3OC)CC2)ncc1O[C@@H](C)C1CC1` [Compound 70, (6-Amino-4-methoxy-3′,4′,5′,6′-tetrahydro-2′H-[3,4′]bipyridinyl-1′-yl)-[5-((S)-1-cyclopropyl-ethoxy)-4-methoxy-pyridin-2-yl]-methanone], the IC50 is 640 nM. Take `COc1cc(C(=O)N2C3COCC2CC(c2cnc(N)cc2OC)C3)ncc1Oc1ccccc1` (centres unmarked) [Compound 68, [7-(6-Amino-4-methoxy-pyridin-3-yl)-3-oxa-9-aza-bicyclo[3.3.1]non-9-yl]-(4-methoxy-5-phenoxy-pyridin-2-yl)-methanone]: the IC50 came to 630 nM. `COc1cc(C(=O)N2CCN(c3cnc(N)cc3OC)CC2)ncc1Oc1ccccc1` [Compound 5, [4-(6-Amino-4-methoxy-pyridin-3-yl)-piperazin-1-yl]-(4-methoxy-5-phenoxy-pyridin-2-yl)-methanone]: the IC50 worked out at 27 nM.

Consider `CCOc1cnc(C(=O)N2CCC(c3cnc(N)cc3OC)CC2)cc1OC` [Compound 65, (6-Amino-4-methoxy-3′,4′,5′,6′-tetrahydro-2′H-[3,4′]bipyridinyl-1′-yl)-(5-ethoxy-4-methoxy-pyridin-2-yl)-methanone], for which the IC50 turned out to be 830 nM. For `COc1cc(C(=O)N2CCC(c3ccc(N)nn3)CC2)ncc1Oc1ccc(OC2CC2)cc1` [Compound 40, [4-(6-Amino-pyridazin-3-yl)-piperidin-1-yl]-[5-(4-cyclopropoxy-phenoxy)-4-methoxy-pyridin-2-yl]-methanone], the IC50 is 170 nM. Take `COc1cc(C(=O)N2CCC(c3cnc(N)cc3OC)CC2)ncc1OC1CCCCC1` [Compound 30, (6-Amino-4-methoxy-3′,4′,5′,6′-tetrahydro-2′H-[3,4′]bipyridinyl-1′-yl)-(5-cyclohexyloxy-4-methoxy-pyridin-2-yl)-methanone]: the IC50 came out at 110 nM. Regarding `COc1cc(C(=O)N2CCC(c3ccc(N)nn3)CC2)ncc1OCc1ccccc1F` [Compound 57, [4-(6-Amino-pyridazin-3-yl)-piperidin-1-yl]-[5-(2-fluoro-benzyloxy)-4-methoxy-pyridin-2-yl]-methanone], the IC50 turned out to be 300 nM. For `COc1cc(C(=O)N2CCC(c3ccc(N)nn3)CC2)ncc1Oc1ccc(F)cc1` [Compound 17, 6-{1-[5-(4-Fluorophenoxy)-4-methoxypyridine-2-carbonyl]piperidin-4-yl}pyridazin-3-amine] the value was 29 nM; for `CCOc1cc(N)nnc1C1CCN(C(=O)c2cc(OC)c(Oc3ccc(C(F)(F)F)cc3)cn2)CC1` [Compound 87], 620 nM; for `CCOc1cc(C(=O)N2CCC(c3ccc(N)nn3)CC2)ncc1Oc1ccccc1` [Compound 83, [4-(6-Amino-pyridazin-3-yl)-piperidin-1-yl]-[5-(phenoxy)-4-ethoxy-pyridin-2-yl]-methanone], 98 nM. With `COc1cc(N)ncc1N1CCN(C(=O)c2ccc(Oc3ccccc3)cn2)[C@@H]([C@H](C)O)C1` [Compound 58, (1S)-1-[(2R)-4-(6-amino-4-methoxypyridin-3-yl)-1-(5-phenoxypyridine-2-carbonyl)piperazin-2-yl]ethan-1-ol], the IC50 was 100 nM.

Take `COc1cc(C(=O)N2CCC(c3cnc(N)cc3OC)CC2)ncc1OCC(C)(C)C` [Compound 59, (6-Amino-4-methoxy-3′,4′,5′,6′-tetrahydro-2′H-[3,4′]bipyridinyl-1′-yl)-[5-(2,2-dimethyl-propoxy)-4-methoxy-pyridin-2-yl]-methanone]: the IC50 was 340 nM. `COc1cc(C(=O)N2CCC(c3ccc(N)nn3)CC2)ncc1Oc1ccc(OC(F)(F)F)cc1` [Compound 80, [4-(6-Amino-pyridazin-3-yl)-piperidin-1-yl]-[4-methoxy-5-(4-trifluoromethoxy-phenoxy)-pyridin-2-yl]-methanone]: the IC50 is under 27 nM. As to `COC[C@H]1CN(c2cnc(N)cc2OC)CCN1C(=O)c1cc(OC)c(Oc2ccccc2)cn1` [Compound 27, [(R)-4-(6-Amino-4-methoxy-pyridin-3-yl)-2-methoxymethyl-piperazin-1-yl]-(4-methoxy-5-phenoxy-pyridin-2-yl)-methanone], the IC50 came out at 75 nM. For `COc1cc(C(=O)N2CCC(c3cnc(N)cc3OC)CC2)ncc1OCC1CC(F)(F)C1` [Compound 45, (6-Amino-4-methoxy-3′,4′,5′,6′-tetrahydro-2′H-[3,4′]bipyridinyl-1′-yl)-[5-(3,3-difluoro-cyclobutylmethoxy)-4-methoxy-pyridin-2-yl]-methanone], the IC50 was determined as 150 nM. In the case of `COc1cc(C(=O)N2CCC(c3nnc(N)cc3OC)CC2)ncc1Oc1ccc(C(F)(F)F)cc1` [Compound 56, [4-(6-Amino-4-methoxy-pyridazin-3-yl)-piperidin-1-yl]-[4-methoxy-5-(4-trifluoromethyl-phenoxy)-pyridin-2-yl]-methanone], the IC50 is 290 nM. For the molecule `COc1cc(C(=O)N2CCC(c3ccc(N)nn3)CC2)ncc1Oc1ccccc1` [Compound 16, [4-(6-Amino-pyridazin-3-yl)-piperidin-1-yl]-(4-methoxy-5-phenoxy-pyridin-2-yl)-methanone], the IC50 turned out to be 27 nM. For `COc1cc(C(=O)N2CCC(c3ccc(N)nn3)CC2)ncc1OCCC1CC1` [Compound 67, [4-(6-Amino-pyridazin-3-yl)-piperidin-1-yl]-[5-(2-cyclopropyl-ethoxy)-4-methoxy-pyridin-2-yl]-methanone] the value was 560 nM; for `COc1cc(C(=O)N2CCC(c3nnc(N)cc3C)CC2)ncc1OCC1CC1` [Compound 78, [4-(6-Amino-4-methyl-pyridazin-3-yl)-piperidin-1-yl]-(5-cyclopropylmethoxy-4-methoxy-pyridin-2-yl)-methanone], 2800 nM.
